Holding throughout (format): cell-based
For assay [1], the system named is human Burkitt's lymphoma cell line Namalwa. As to the kind of experiment: Caspase cascade activation in Namalwa cells. To be noted: Burkitts lymphoma cell, 48 h incubation, read-out: caspase potency EC50 Namalwa. The procedure, abridged:
(§1)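 Cells in medium + 10% FCS were exposed to compound at 0.016 to 10 μM final for 48 h at 37° C. Lysis buffer (pH 7.2, DTT, lysolecithin) containing 14 μM Ac-DEVD-R110 was then added for 3 h at room temperature, read at ex 485/em 530 nm. Net RFU was taken relative to untreated control, and EC50 came from a sigmoidal fit.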

In assay [2] the test system is Human breast cancer cell lines T-47D. As to the kind of experiment: Caspase cascade activation (Ac-DEVD-R110 fluorogenic substrate) in T-47D cells. To be noted: T47D cells, 48 h incubation, read-out: caspase potency EC50 T47D. The method in brief: as §1
Assay [3] concerns human hepatocellular carcinoma cell line SNU398. The assay is described as follows: Caspase cascade activation in SNU398 cells. To be noted: SNU-398, 48 h incubation, read-out: caspase potency EC50 SNU398. The method in brief: as §1
In assay [4] the test system is human lymphoma cell line Raji. The assay is described as follows: Caspase cascade activation in Raji cells. To be noted: RAJ1 cells, 48 h incubation, read-out: caspase potency EC50 RAJ1. The method in brief: as §1
For assay [5], the system named is human cancer cell line H1299. As to the kind of experiment: Caspase cascade activation in H1299 cells. To be noted: NCI-H1299, 48 h incubation, read-out: caspase potency EC50 H1299. As for the experimental part: Human breast cancer cell lines T-47D, human hepatocellular carcinoma cell line SNU398, human colon carcinoma cell line HCT116, human cancer cell line H11299, human Burkitt's lymphoma cell line Namalwa, human lymphoma cell line Raji, and human B cell lymphoblastoid cell line Ramos were grown according to media component mixtures designated by American Type Culture Collection+10% FCS (Invitrogen Corporation), in a 5% CO2-95% humidity incubator at 37° C. T-47D and H1299 cells were maintained at a cell density between 50 and 80% confluency at a cell density of 0.1 to 0.6×10^6 cells/mL. Cells were harvested at 600×g and resuspended at 0.65×10^6 cells/mL into appropriate media+10% FCS. An aliquot of 22.5 μL of cells was added to a well of a 384-well microtiter plate containing 2.5 μL of a 10% DMSO in RPMI-1640 media solution containing 0.16 to 100 μM of 6-(3,4-dimethoxyphenyl)-3-(2-methoxyphenyl)-[1,2,4]triazolo[3,4-b][1,3,4]thiadiazole or other test compound (0.016 to 10 μM final). An aliquot of 22.5 μL of cells was added to a well of a 384-well microtiter plate containing 2.5 μL of a 10% DMSO in RPMI-1640 media solution without test compound as the control sample. The samples were mixed by agitation and then incubated at 37° C. for 48 h in a 5% CO2-95% humidity incubator. After incubation, the samples were removed from the incubator and 25 μL of a solution containing 14 μM of N-(Ac-DEVD)-N′-ethoxycarbonyl-R110 (SEQ ID No.:1) fluorogenic substrate (Cytovia, Inc.; WO99/18856), 20% sucrose (Sigma), 20 mM DTT (Sigma), 200 mM NaCl (Sigma), 40 mM Na PIPES buffer pH 7.2 (Sigma), and 500 μg/mL lysolecithin (Calbiochem) was added. The samples were mixed by agitation and incubated at room temperature. Using a fluorescent plate reader (Model SPECTRAfluor Plus, Tecan), an initial reading (T=0) was made approximately 1-2 min after addition of the substrate solution, employing excitation at 485 nm and emission at 530 nm, to determine the background fluorescence of the control sample. After the 3 h incubation, the samples were read for fluorescence as above (T=3 h).
The Relative Fluorescence Unit values (RFU) were used to calculate the sample readings as follows: RFU(T=3h)−Control RFU(T=0)=Net RFU(T=3h)
The activity of caspase cascade activation was determined by the ratio of the net RFU value for 6-(3,4-dimethoxyphenyl)-3-(2-methoxyphenyl)-[1,2,4]triazolo[3,4-b][1,3,4]thiadiazole (Example I) or other test compound to that of control samples. The EC50 (nM) was determined by a sigmoidal dose-response calculation (Prism 3.0, GraphPad Software Inc.).

Assay [6] relates to Human breast cancer cell lines MDAMB435. As to the kind of experiment: Inhibition of cell proliferation (GI50) in MDAMB435 cells. To be noted: MDA MB 435 cells, 48 h incubation. As for the experimental part: (§2) Human breast cancer cell lines T-47D, MX1 and MDAMB435, human colon carcinoma cell line HCT116, human leukemia cell line K562, human lymphoma cell line Raji, human B cell lymphoblastoid cell line Ramos, and human Burkitt's lymphoma cell line Namalwa were grown and harvested as in Example 14. An aliquot of […] of cells (4.4×10^4 cells/mL) was added to a well of a 96-well microtiter plate containing 5 μL of a 10% DMSO in RPMI-1640 media solution containing 10 nM to 100 μM of 6-(3,4-dimethoxyphenyl)-3-(2-methoxyphenyl)-[1,2,4]triazolo[3,4-b][1,3,4]thiadiazole (1 nM to 10 μM final). An aliquot of 45 μL of cells was added to a well of a 96-well microtiter plate containing 5 μL of a 10% DMSO in RPMI-1640 media solution without compound as the control sample for maximal cell proliferation (LMax). The samples were mixed by agitation and then incubated at 37° C. for 48 h in a 5% CO2-95% humidity incubator. After incubation, the samples were removed from the incubator and 25 μL of CellTiter-Glo™ reagent (Promega) was added. The samples were mixed by agitation and incubated at room temperature for 10-15 min. Plates were then read using a luminescent plate reader (Model SPECTRAfluor Plus, Tecan) to give Ltest values.
(§3) The samples were mixed by agitation and then incubated at 37° C. for 0.5 h in a 5% CO2-95% humidity incubator. After incubation, the samples were removed from the incubator and 25 μL of CellTiter-Glo™ reagent (Promega) was added. The samples were mixed by agitation and incubated at […] 10-15 min at room temperature in a 5% CO2-95% humidity incubator. Fluorescence was read as above, (LStart) defining luminescence for initial cell number used as baseline in GI50 determinations.
(§4) GI50 (dose for 50% inhibition of cell proliferation) is the concentration where [(LTest−LStart)/(LMax−LStart)]=0.5.

Assay [7] has as its system Human breast cancer cell lines T-47D. The assay is described as follows: Inhibition of cell proliferation (GI50, CellTiter-Glo) in T-47D cells. To be noted: T47D cells, 48 h incubation. As for the experimental part: as §2, §3, §4
(In general: Cellular ATP, detected with luciferase, serves as a proxy for viable cell number.)

For assay [8], the system named is human colon carcinoma cell line HCT116. As to the kind of experiment: Caspase cascade activation in HCT116 cells. To be noted: HCT-116, 48 h incubation, read-out: caspase potency EC50 HCT116. The procedure, abridged: as §1
Assay [9] concerns Human breast cancer cell lines MX1. As to the kind of experiment: Inhibition of cell proliferation (GI50) in MX1 cells. To be noted: 48 h incubation. How it is done: as §2, §3, §4
The test system of assay [10] is human B cell lymphoblastoid cell line Ramos. The assay is described as follows: Caspase cascade activation in Ramos cells. The conditions noted are these: 48 h incubation, read-out: caspase potency EC50 RAMOS. The procedure, abridged: as §1
For assay [11] the test system is unchanged. As to the kind of experiment: Inhibition of cell proliferation (GI50) in Ramos cells. To be noted: 48 h incubation.
The test system of assay [12] is human leukemia cell line K562. As to the kind of experiment: Inhibition of cell proliferation (GI50) in K562 cells. To be noted: 48 h incubation.
Assay [13] has as its system human lymphoma cell line Raji. As to the kind of experiment: Inhibition of cell proliferation (GI50) in Raji cells. The conditions noted are these: 48 h incubation.
Assay [14] relates to human colon carcinoma cell line HCT116. As to the kind of experiment: Inhibition of cell proliferation (GI50) in HCT116 cells. To be noted: HCT 116 cells, 48 h incubation.
In assay [15] the test system is human Burkitt's lymphoma cell line Namalwa. As to the kind of experiment: Inhibition of cell proliferation (GI50) in Namalwa cells. The conditions noted are these: Burkitts lymphoma cell, 48 h incubation.

Where only a bound is given, the exact number is not on record here.

A word on the EC50: it is the concentration that produces a half-maximal response. In general, GI50 refers to the concentration that inhibits growth by half. With `CCc1cc(-c2nnc3sc(-c4ccc(C)cc4)nn23)n(C)n1` [A, 3-(3-Ethyl-1-methyl-1H-pyrazol-5-yl)-6-p-tolyl-[1,2,4]triazolo[3,4-b][1,3,4]thiadiazole], the EC50 in assay [1] is more than 10000 nM; in [2] it was 3680 nM; in assay [3] it was 1860 nM; in [4], more than 10000 nM; in assay [5] it was 3160 nM; in assay [8], 5450 nM. Moreover, in assay [10], the EC50 was more than 10000 nM. The GI50 came to 253 nM in assay [6], 2730 nM in assay [7] and 4080 nM in assay [9].
With `CCc1cc(-c2nnc3sc(-c4ccc(OC)cc4)nn23)n(C)n1` [C, 3-(3-Ethyl-1-methyl-1H-pyrazol-5-yl)-6-(4-methoxyphenyl)-[1,2,4]triazolo[3,4-b][1,3,4]thiadiazole], the EC50 was 574 nM in assay [1]; 4030 nM in assay [2]; 1720 nM in assay [3]; more than 10000 nM in assay [4]; 4570 nM in assay [8]; 566 nM in [10]. For the same compound, the GI50 in assay [7] amounted to 900 nM; in [9] it was 9000 nM.
Regarding `COc1ccc(-c2nn3c(-c4ccccc4C)nnc3s2)cc1OC` [E, 6-(3,4-Dimethoxyphenyl)-3-o-tolyl-[1,2,4]triazolo[3,4-b][1,3,4]thiadiazole], the GI50 turned out to be 3000 nM in assay [11]; 2490 nM in assay [12]; 9400 nM in assay [13]; 894 nM in assay [6]; 6220 nM in assay [14]; 3850 nM in assay [7]. Moreover, the results for the GI50 in [15] and in [9] were 7870 nM and 4000 nM, respectively. Besides, the EC50 in assay [1] is 253 nM; in [2], 561 nM; in assay [3], 507 nM; in assay [4], 274 nM; in [5] it was 3000 nM; in assay [8], 5020 nM. In assay [10], the concentration giving a half-maximal response (EC50) came out at 235 nM.
With `CCN(CC)c1ccc(-c2nn3c(-c4n[nH]c5c4CCC5)nnc3s2)cc1` [Entry K1, 6-(4-Diethylaminophenyl)-3-(1,4,5,6-tetrahydrocyclopenta[c]pyrazol-3-yl)-[1,2,4]triazolo[3,4-b][1,3,4]thiadiazole], the EC50 in assay [1] was determined as 580 nM; in assay [2], 636 nM; in assay [4] it was 617 nM; in assay [8], 1020 nM; in [10], 585 nM. Besides, the 50% growth inhibitory concentration (GI50) worked out at 497 nM in assay [14], 167 nM in [7] and 138 nM in assay [15].
Turning to `Cc1ccc(-c2nn3c(-c4n[nH]c5c4CCC5)nnc3s2)cc1` [Entry M1, 6-(4-Methylphenyl)-3-(1,4,5,6-tetrahydrocyclopenta[c]pyrazol-3-yl)-[1,2,4]triazolo[3,4-b][1,3,4]thiadiazole], the EC50 in assay [1] came out at 39 nM; in assay [2] it was 395 nM; in assay [3], 34 nM; in [4] it was 81 nM; in assay [8], 67 nM; in assay [10], 40 nM. For the same compound, the GI50 in [14] came to 89 nM; in [7], 200 nM; in assay [15], 16 nM.
As to `COc1ccc(-c2nn3c(-c4ccccc4Cl)nnc3s2)cc1OC` [F, 3-(2-Chlorophenyl)-6-(3,4-dimethoxyphenyl)-[1,2,4]triazolo[3,4-b][1,3,4]thiadiazole], the GI50 was determined as 4000 nM in [11]; 2730 nM in assay [12]; 8000 nM in assay [13]; 1070 nM in assay [6]; 7920 nM in assay [14]; 4030 nM in assay [7]. In addition, the GI50 was 9040 nM in assay [15] and 4000 nM in [9]. Besides, the EC50 in assay [1] came to 5320 nM; in assay [2], 2690 nM; in assay [3] it was 4460 nM; in assay [4], 5270 nM; in [5], 5310 nM; in assay [8] it was 5160 nM. Also, the EC50 in assay [10] was determined as 5300 nM.
As to `COc1ccccc1-c1nnc2sc(-c3ccc(Br)cc3)nn12` [H, 6-(4-Bromophenyl)-3-(2-methoxyphenyl)-[1,2,4]triazolo[3,4-b][1,3,4]thiadiazole], the GI50 in assay [11] came out at 120 nM; in assay [12], 626 nM; in assay [13] it was 700 nM; in assay [6], 48 nM; in [14] it was 844 nM; in assay [7], 217 nM. Moreover, the GI50 in assay [15] came to 520 nM; in assay [9] it was 400 nM. For the same compound, the EC50 in [1] turned out to be 344 nM; in [2], 563 nM; in assay [3] it was 261 nM; in assay [4], 501 nM; in assay [5], 733 nM; in assay [8], 537 nM. Moreover, in assay [10], the EC50 is 253 nM.
As for `COc1ccc(-c2nn3c(-c4ccccc4OC)nnc3s2)cc1OC` [I, 6-(3,4-dimethoxyphenyl)-3-(2-methoxyphenyl)-[1,2,4]triazolo[3,4-b][1,3,4]thiadiazole], the GI50 was determined as 2000 nM in [11]; 2080 nM in assay [12]; 2000 nM in assay [13]; 136 nM in [6]; 2000 nM in assay [14]; 261 nM in [7]. Besides, the GI50 in assay [15] was determined as 2000 nM; in assay [9], 1030 nM. The EC50 was 412 nM in assay [1]; 563 nM in [2]; 300 nM in [3]; 521 nM in [4]; 808 nM in assay [5]; 523 nM in assay [8]. Also, in [10], the EC50 was found to be 349 nM.

For the origin of these results see patent US7732468B2, “3-aryl-6-aryl-[ 1,2,4]triazolo[3,4-b][1,3,4]thiadiazoles and related compounds as activators of caspases and inducers of apoptosis and the use thereof” (Cytovia, Inc., priority 2006, dated 2010).
